One experiment concerns MIA PaCa-2 cells. The experiment in a line: MTT proliferation assay in MIA PaCa-2 cells. Format: cell-based, human. To be noted: Homo sapiens, MIA PaCa-2, 72 h drug exposure. As for the experimental part: The human pancreatic carcinoma MIA PaCa-2 was purchased from China Centre for Type Culture Collection, AsPC-1 and BxPC-3 cell Lines were purchased from Cell Centre of the Institute of Basic Medical Sciences, Chinese Academy of Medical Sciences and Peking Union Medical College. PANC-1 was kindly provided by Nankai Hospital (Tianjin, China). These cancer cell lines were cultured according to the manufacturer’s instruction.
Then 3-fold diluted concentrations of tested compound were added respectively which was dissolved by DMSO in the ratio of 1:1000. After indicated incubation period, MTT was added to each well and incubated for 4 h at 37 °C. Then, the supernatant was discarded gently, and the precipitate was dissolved in 100 µL of DMSO in each well. The absorbance (A) at 570 nm was detected with a microplate reader (Multiskan MK3; Thermo Fisher Scientific, MA, USA). Vehicle-treated cells were served as the control for the calculation of relative cell viability (%) of treated group at single concentration. IC50 value was calculated directly from the inhibition curve of serial dilution of test compound and was expressed as mean ± SD using the SPSS statistical software (SPSS17.0 Inc., Chicago, IL, USA).

For experiment [1], the system named is AsPC-1 cell-derived xenograft. The experiment in a line: AsPC-1 cell-derived xenograft mice model, in vivo efficacy. To be noted: five days on two days off per week. Further details: species or system BALB/C nude mice. How it is done:
Synthetic compound was administered as a suspension or solution in the saline with 5% DMSO and 5% Solutol. GCTB was dissolved in saline. All of the experiments were approved by the Institutional Animal Care and Use Committee of Institute of Medicinal Biotechnology. All experiments were carried out under ethics committee–approved protocols and in compliance with the guidelines for the care of laboratory animals of Institute of Medicinal Biotechnology, CAMS.
AsPC-1 (5 × 10^7) cells were injected subcutaneously into 5-week-old female BALB/C nude mice (Beijing Huafukang Bioscience CO. Inc, Beijing, China). After two weeks, mice were omogenizamised and treated with vehicle, gemcitabine (GCTB), or test compound. Blank solvent and test compound was administered by oral gavage (10 ml/kg) with once daily of five days and followed by 2 days off in each week, GCTB was given once a week by 50 mg/kg intraperitoneal injection. Mice were inspected daily for clinical signs, both tumour diameters and body weight were determined 3 times weekly. Tumour volumes were calculated according to the formula “tumor volume (V) = length × width^2/2”. Median TGI values were calculated as follows: TGI = 100 × [1-(Vtreated group at day20-Vtreated group at day1)/(Vvehicle group at day20-Vvehicle group at day1)]. Data were plotted as average with SD in the graphical representation of tumour growth. The p values obtained from the two-way ANOVA analysis. Meanwhile, main organs of mice were collected, formalin-fixed and paraffin-embedded for pathological analysis by H&E dyeing. For drug concentration determination, blood and tumour tissues were collected at indicated time after single administration. Standard curve of test compound was established in the acquisition mode of SIM using a SHIMADZU LC-MS instrument. […] After centrifugation at 10 × 10^3 for 5 min, the supernatant was injected directedly into LC-MS instrument for quantification of drug concentration. […] After centrifugation under same condition as plasma samples, supernatant was separated and injected into LC-MS for quantification.

From article PMC9858427, “Design, synthesis and biological evaluation of 2-((4-sulfamoylphenyl)amino)-pyrrolo[2,3-d]pyrimidine derivatives as CDK inhibitors” (Journal of Enzyme Inhibition and Medicinal Chemistry, 2023) come the findings set out here.

The term IC50 denotes the midpoint of a concentration-inhibition curve. A high value points to weaker potency in that assay.

Compound `CN(C)C(=O)c1cc2cnc(Nc3ccc(S(N)(=O)=O)cc3)nc2n1C1CCCC1` [compound 2g, 7-Cyclopentyl-N,N-dimethyl-2-((4-sulfamoylphenyl)amino)-7H-pyrrolo[2,3-d]pyrimidine-6-carboxamide] yielded an IC50 in the experiment with MIA PaCa-2 cells of 0.52 ± 0.67 µM. In experiment [1] (oral 30 mg/kg, 3-week administration), the “tumour growth inhibition (TGI)” value is recorded as 12%. Moreover, the “reduction of tumour volume compared to vehicle group” value in experiment [1] (oral 60 mg/kg, 3 weeks) was “up to 46%”.
